{
  "source": "patent US7208502B2",
  "about": "“Methods of treating conditions associated with an Edg-3 receptor” (Maniv Energy Capital, priority 2002, dated 2007)",
  "key": {"human Edg-3 receptors": {"biological_target": "T1, human Edg-3 receptors (Homo sapiens, UniProt Q99500)", "T1 construct": "expressed in transfected cells; host or cells: HTC rat hepatoma cells", "T1 sequence (Q99500 whole entry)": "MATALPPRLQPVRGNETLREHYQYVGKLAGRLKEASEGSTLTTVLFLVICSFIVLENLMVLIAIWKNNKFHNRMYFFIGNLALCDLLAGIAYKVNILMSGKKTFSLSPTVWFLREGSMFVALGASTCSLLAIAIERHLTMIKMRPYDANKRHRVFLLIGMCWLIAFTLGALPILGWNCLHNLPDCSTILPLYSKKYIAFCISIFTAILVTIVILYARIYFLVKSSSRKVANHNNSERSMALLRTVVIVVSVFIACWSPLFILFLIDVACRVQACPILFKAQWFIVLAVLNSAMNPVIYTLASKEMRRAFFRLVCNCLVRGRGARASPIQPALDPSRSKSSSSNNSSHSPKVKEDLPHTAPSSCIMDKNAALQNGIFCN", "experiment": "Intracellular calcium (FLIPR) assay, S1P-stimulated, HTC cells expressing Edg-3", "format": "cell-based", "conditions": "HTC cells expressing human Edg-3 receptors; FIG. 1", "text": "Specific assays for Edg-3 receptor activity are known to those of skill in the art. For example, cells expressing Edg-3 receptors can be contacted with a membrane-permeant calcium sensitive dye such as Fluo-4 AM or a proprietary calcium dye loading kit (e.g., FLIPR Calcium Assay kit, Molecular Devices, Sunnyvale, Calif.). Intracellular calcium is capable of binding to the dye and emitting fluorescent radiation when illuminated at the appropriate wavelength. The cells can thus be illuminated an appropriate wavelength for the dye and any emitting light can be captured by a cooled CCD camera. Changes in fluorescence indicate changes in intracellular calcium resulting from the activation of an Edg-3 receptor. Such changes can be measured advantageously in whole cells in “real-time” (Berridge et al., Nature Reviews 2000, 1:11–21). […]\n[…] such as Edg-3, couple to calcium effector pathways, and result in increases in intracellular calcium following receptor activation (An, 1998, J. Cell Biochem. Supp 30–31:147–157). This biological response lends itself to a very efficient, high-throughput screen using a Fluorescence Imaging Plate Reader (FLIPR; Molecular Devices, Sunnyvale, Calif.). The FLIPR system is a real-time, cell-based assay system with continuous fluorescence detection using a cooled CCD camera. […]"}, "Edg-4": {"biological_target": "T2, Edg-4 (Homo sapiens, UniProt Q9HBW0)", "T2 construct": "expressed in transfected cells; host or cells: HTC rat hepatoma cells", "T2 sequence (Q9HBW0 whole entry)": "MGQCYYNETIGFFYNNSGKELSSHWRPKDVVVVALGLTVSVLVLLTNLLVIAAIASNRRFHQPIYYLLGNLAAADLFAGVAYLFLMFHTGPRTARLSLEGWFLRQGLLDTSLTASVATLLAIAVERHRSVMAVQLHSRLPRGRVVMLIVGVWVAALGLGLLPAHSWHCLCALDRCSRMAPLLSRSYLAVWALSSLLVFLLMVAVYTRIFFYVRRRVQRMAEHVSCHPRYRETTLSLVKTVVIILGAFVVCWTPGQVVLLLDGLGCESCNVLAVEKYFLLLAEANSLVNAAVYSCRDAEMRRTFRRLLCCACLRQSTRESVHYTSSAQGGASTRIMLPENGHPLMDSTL", "experiment": "Intracellular calcium assay, LPA-stimulated, HTC cells expressing Edg-4", "format": "cell-based", "conditions": "concentrations as high as 20 µM"}, "Edg-5": {"biological_target": "T3, Edg-5 (Homo sapiens, UniProt O95136)", "T3 construct": "expressed in transfected cells; host or cells: HTC rat hepatoma cells", "T3 sequence (O95136 whole entry)": "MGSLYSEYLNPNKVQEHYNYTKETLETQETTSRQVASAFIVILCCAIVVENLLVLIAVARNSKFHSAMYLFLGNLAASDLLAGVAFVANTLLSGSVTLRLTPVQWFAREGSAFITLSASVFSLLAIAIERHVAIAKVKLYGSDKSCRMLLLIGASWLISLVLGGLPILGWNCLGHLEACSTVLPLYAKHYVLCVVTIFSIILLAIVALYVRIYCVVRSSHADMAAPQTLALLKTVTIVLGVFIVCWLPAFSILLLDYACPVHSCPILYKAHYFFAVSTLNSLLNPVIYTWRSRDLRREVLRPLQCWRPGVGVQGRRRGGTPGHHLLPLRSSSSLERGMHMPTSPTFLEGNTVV", "experiment": "Intracellular calcium assay, S1P-stimulated, HTC cells expressing Edg-5", "format": "cell-based", "conditions": "concentrations as high as 20 µM"}, "Edg-8": {"biological_target": "T4, Edg-8 (Homo sapiens, UniProt Q9H228)", "T4 construct": "expressed in transfected cells; host or cells: HTC rat hepatoma cells", "T4 sequence (Q9H228 whole entry)": "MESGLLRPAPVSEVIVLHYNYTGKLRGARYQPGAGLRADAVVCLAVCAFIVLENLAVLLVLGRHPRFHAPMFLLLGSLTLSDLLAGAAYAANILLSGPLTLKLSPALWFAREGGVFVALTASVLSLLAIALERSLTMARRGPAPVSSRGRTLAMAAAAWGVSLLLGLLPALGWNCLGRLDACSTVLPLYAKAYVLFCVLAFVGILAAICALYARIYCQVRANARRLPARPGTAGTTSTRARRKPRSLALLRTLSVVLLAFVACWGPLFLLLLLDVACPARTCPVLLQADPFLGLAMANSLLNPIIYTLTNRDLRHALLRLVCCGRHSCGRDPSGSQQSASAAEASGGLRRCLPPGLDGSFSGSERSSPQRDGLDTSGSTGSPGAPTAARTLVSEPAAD", "experiment": "Intracellular calcium assay, S1P-stimulated, HTC cells expressing Edg-8", "format": "cell-based", "conditions": "concentrations as high as 20 µM"}, "[1]": {"system": "Adrenergic α1, non-selective", "experiment": "Radioligand binding assay, 3H Prazosin", "parameters": "species or system Wistar Rat", "conditions": "10 μM; significance criteria ≧50% of max stimulation or inhibition", "description": "(§1) In order to test the selectivity of compounds, various enzyme assays as well as radioligand binding assays were performed using numerous non-Edg receptor targets as listed below.\n(§2) A radioligand binding assay was performed using adrenergic α1 according to the method of Greengrass and Bremner 1979, Eur. J. Pharmacol. 55:323–326. A radioligand binding assay was performed using adrenergic α2 according to the method of Boyajian and Leslie, 1987, J. Pharmacol. Exp. Ther. 241:1092–1098. A radioligand binding assay was performed using adrenergic β according to the method of Feve et al., 1994, Proc. Natl. Acad. Sci. USA 91:5677–5681. A radioligand binding assay was performed using angiotensin AT2 according to the method of Whitebread et al., 1991, Biochem. Biophys. Res. Comm. 181:1365–1371. A radioligand binding assay was performed using calcium channel Type L, dihydropyridine according to the method of Ehlert et al., 1982, Life Sci. 30:2191–2202. A radioligand binding assay was performed using dopamine D2L according to the method of Bunzo et al., 1988, Nature 336:783–787. A radioligand binding assay was performed using endothelin ETA according to the method of Mihara et al., 1994, J. Phrmacol. Exp Ther. 268:1122–1127. A radioligand binding assay was performed using histamine H1 Central according to the method of Hill et al., 1978, J. Neurochem. 31:997–1004. […]\n(§3) Quantitation Method: Radioligand Binding […]"}, "Adrenergic α2": {"system": "Adrenergic α2", "experiment": "Radioligand binding assay, 3H Rauwolscine", "parameters": "species or system Wistar rat", "conditions": "10 μM; significance criteria ≧50% of max stimulation or inhibition", "description": "as §1, §2, §3"}, "Adrenergic β": {"system": "Adrenergic β", "experiment": "Radioligand binding assay, 3H Dihydroaplenolol", "parameters": "species or system Wistar rat", "conditions": "10 μM; significance criteria ≧50% of max stimulation or inhibition", "description": "as §1, §2, §3"}, "[2]": {"system": "Calcium Channel Type L, Dihydropyridine", "experiment": "Radioligand binding assay, 3H Nitrendipine", "parameters": "species or system Wistar Rat", "conditions": "10 μM; significance criteria ≧50% of max stimulation or inhibition", "description": "as §1, §2, §3"}},
  "note": "“Also recorded” adds a separate entry of the source.",
  "data": [
    {"smiles": "Cc1c(-c2ccccc2)nc2ccccc2c1C(=O)NCc1ccc(F)cc1", "note": "[Compound 101, 3-methyl-2-phenyl-quinoline-4-carboxylic acid 4-fluoro-benzylamide]", "values": [
      {"measurement": "inhibition of Edg-3 stimulated S1P responses (Edg-3 receptors)", "setting": "human Edg-3 receptors", "result": "demonstrate inhibition; also recorded: specifically inhibited"},
      {"measurement": "inhibition of LPA-stimulated calcium increases, Edg-4", "setting": "Edg-4", "result": "did not inhibit"},
      {"measurement": "inhibition of S1P-stimulated calcium increases, Edg-5", "setting": "Edg-5", "result": "did not inhibit"},
      {"measurement": "inhibition of S1P-stimulated calcium increases, Edg-8", "setting": "Edg-8", "result": "did not inhibit"},
      {"measurement": "activity in standard binding assay, Adrenergic α1", "setting": "[1]", "result": "no activity"},
      {"measurement": "activity in standard binding assay, Adrenergic α2", "setting": "Adrenergic α2", "result": "no activity"},
      {"measurement": "activity in standard binding assay, Adrenergic β", "setting": "Adrenergic β", "result": "no activity"},
      {"measurement": "activity in standard binding assay, Calcium Channel Type L, Dihydropyridine", "setting": "[2]", "result": "no activity"}
    ]}
  ]
}
